Experimental data taken from paper PMC8648852, “Pyrazoline derivatives as promising novel antischistosomal agents” (Scientific Reports, 2021).

Experiments:
[1] = Cytotoxicity assay (MTT), SH-SY5Y cells; type: cell-based, human; conditions: human, SH-SY5Y cells (human neuroblastoma); SH-SY5Y cells, 72 h, MTT
Protocol: (§1) The selectivity index (SI) of a compound is a widely accepted parameter used to express a drug’s in vitro efficacy. Therefore, the cytotoxic effect of these six pyrazolines (16, 18, 19, 21, 22 and 23) was evaluated using a monkey cell line (Vero) and a human cell line (SH-SY5Y). Cells were incubated with each compound at a range of concentrations for determination of cytotoxic concentrations 50% (CC50). […] With the EC50 data collected for schistosomes as well as the CC50 for animal and human cells, the selectivity indices (SI) were determined for each of the pyrazolines tested (Table 1). […] A SI value ≥ 10 is in accordance with the criteria defined by the WHO for antiparasitic hits, leads, and drug candidates. […] Comparatively, the SI values achieved with pyrazolines exceeded those obtained for other relevant heterocyclic compounds with antischistosomal properties[21],[22]. Although the SI values recorded for pyrazolines were more than 10 times below those for the reference drug praziquantel, a SI value ≥ 10 fulfills and exceeds the criteria established by the WHO for potential compounds as anthelmintic agents. The cytotoxicity of compounds was tested against Vero cells (African green monkey kidney cells obtained from the American Type Culture Collection, ATCC; Manassas, VA, USA) and SH-SY5Y cells (human neuroblastoma obtained from Banco de Células do Rio de Janeiro, BCRJ, RJ, Brazil). Cells was cultured in DMEM medium supplemented with 10% fetal calf serum, penicillin (100 U/mL) and streptomycin (100 µg/mL) and 2 mM of L-glutamine at 37 °C and in a 5% CO2 humidified incubator (Panasonic). The DMEM contained 1 or 4 mg/mL glucose for Vero and SH-SY5Y cells, respectively. Cytotoxicity assay was performed as previously described[25],[26]. Briefly, cells were seeded in 96-well plates (Corning) in DMEM medium and incubated with twofold serial drug starting at 200 μM following a 24 h adhesion period at 37 °C in 5% CO2. After 72 h, MTT was added and incubation was continued for another 3 h. The plate was then read using spectrophotometer (Epoch Microplate Spectrophotometer, BioTek Instruments, Winooski, VT, USA) at 595 nm. The assay was conducted in duplicate and repeated three times. Values were expressed as percentage of the control and 50% cytotoxic concentration (CC50) values were calculated. The selectivity indices (SI) of tested compounds were calculated by dividing CC50 values obtained on mammalian cells with EC50 values determined on S. mansoni.

[2] = system: SH-SY5Y cells; experiment: Cytotoxicity assay (MTT), SH-SY5Y cells; type: cell-based, human; conditions: CC50 (SH-SY5Y) divided by EC50 (S. mansoni)
Protocol: as §1

[3] = system: Vero cells; experiment: Cytotoxicity assay (MTT), Vero cells; type: cell-based, African green monkey; conditions: CC50 (Vero) divided by EC50 (S. mansoni)
Protocol: as §1

[4] = Cytotoxicity assay (MTT), Vero cells; type: cell-based, African green monkey; conditions: African green monkey, Vero cells (African green monkey kidney cells); Vero cells, 72 h, MTT; brackets = 95% confidence interval
Protocol: as §1

[5] = system: S. mansoni adult worm; experiment: In vitro antischistosomal assay (viability of ex vivo adult worms); type: cell-based, Schistosoma mansoni; conditions: for Time until all parasites were dead: 50 μM; for Antiparasitic activity in initial screen: 50 µM, after 72 h, adult worms; for EC50: 72 h, ex vivo adult schistosomes, brackets = 95% confidence interval; for Death of all worms within 24 h: 25 μM
Protocol: For biological screening, S. mansoni adult parasites were isolated from the mouse infection model (parasite ex vivo) and all compounds were initially screened at 50 µM. The gold-standard antiparasitic compound praziquantel was used as a positive control and DMSO at 0.5% v/v (representing the highest concentration of solvent) served as a negative control. […] For the remaining compounds tested, no EC50 values could be calculated due to lack of activity at 50 μM. […] In tandem, our findings confirm that pyrazolines have a potent antiparasitic activity. Indeed, few compounds in the literature are active at low concentrations for review see[11],[19]. According to criteria established by the World Health Organization (WHO) for antiparasitic hits, leads, and drug candidates, at the start of a screening campaign a compound should inhibit mobility of helminths in vitro at 10 μg/mL[20], commonly ranging from 30 to 40 μM. Thus, the anthelminthic activity of pyrazolines surpasses criteria established by the WHO.
(§2) Adult schistosomes (BH strain) were isolated from infected mice and cultured in RPMI medium + 10% fetal calf serum and 100 U/mL penicillin and 100 μg/mL streptomycin in a 24-well culture plate (Corning, New York, NY, USA) containing one pair of parasites per well at 37 °C and 5% CO2 (Panasonic Healthcare, Sakata, Oizumi-machi, Japan)[38],[39]. For antischistosomal assay, compounds were dissolved in DMSO (final concentration of 0.5% v/v). Each drug concentration was tested at least in triplicate, and the experiments were repeated three times. The initial concentration of the pyrazolines and praziquantel was 50 μM and 3 μM, respectively, which was serially diluted in medium with twofold dilutions to give six concentrations[40],[41]. The negative control worms were assayed in RPMI 1640 medium and RPMI 1640 with 0.5% DMSO. Parasites were monitored daily at 24, 48 and 72 h under a stereomicroscope (Leica Microsystems EZ4E, Wetzlar, Germany) and an inverted microscope (BEL Engineering INV 100, Monza, MB, Italy). Egg production was evaluated daily as previously described. Parasite viability was averaged and 50% effective concentrations (EC50) were calculated using GraphPad Prism software[24],[43].

[6] = system: paired adult schistosomes (S. mansoni); experiment: Egg production (fecundity) of paired adult schistosomes in vitro; type: cell-based, Schistosoma mansoni; conditions: sublethal concentrations (6.25 μM for 16, 12.5 μM for 19 and 23), compared to control
Protocol: Based on antischistosomal properties of pyrazolines 16, 18, 19, 21, 22 and 23, the ability of these six compounds to affect fecundity (egg production) was subsequently measured. […] To further investigate this effect on schistosome fecundity, parasites were tested using sublethal concentrations (3.5 μM for compound 22, 6.25 μM for compound 16, and 12.5 μM for compounds 18, 19, 21, and 23).
as §2

Structure (SMILES) | CC50 at 72 h [1] | CC50 at 72 h [4] | EC50 ([5]; Schistosoma mansoni) | melting point | other results
CCCCCCCCCCOc1ccc(C2CC(c3ccc(F)cc3)=NN2C(N)=O)cc1 (centres unmarked) [Compound 18, 5-(4-(decyloxy)phenyl)-3-(4-fluorophenyl)-4,5-dihydropyrazole-1-carboxamide] | > 200 µM | 159 µM | < 20 µM |  | Human cells SI (selectivity index) [2]: > 13.7; Monkey cells SI (selectivity index) [3]: 10.9; Time until all parasites were dead [5]: ≤ 24 h; Antiparasitic activity in initial screen [5]: showed antiparasitic activity; EC50 [5]: 14.6 µM
CCCCCCCCOc1ccc(C2CC(c3ccccc3)=NN2C(N)=S)cc1 (centres unmarked) [Compound 24, 4,5-dihydro-5-(4-(octyloxy)phenyl)-3-phenylpyrazole-1-carbothioamide] |  |  | > 50 µM | 90.4 to 92.1 °C | 
CCCCCCCCCOc1ccc(C2CC(c3ccccc3)=NN2C(N)=S)cc1 (centres unmarked) [Compound 25, 4,5-dihydro-5-(4-(nonyloxy)phenyl)-3-phenylpyrazole-1-carbothioamide] |  |  | > 50 µM | 86.4 to 88.2 °C | 
CCCCCCCCCCCCCCOc1ccc(C2CC(c3ccc(F)cc3)=NN2C(N)=S)cc1 (centres unmarked) [Compound 31, 3-(4-fluorophenyl)-4,5-dihydro-5-(4-(tetradecyloxy)phenyl)pyrazole-1-carbothioamide] |  |  | > 50 µM | 92.2 to 94.6 °C | 
Fc1ccc(-c2cc(-c3ccc(Br)cc3)n[nH]2)cc1 [Compound 33, 3-(4-bromophenyl)-5-(4-fluorophenyl)-1H-pyrazole] |  |  | > 50 µM | 217 to 219 °C | 
CCCCCCCCCCOc1ccc(C2CC(c3ccccc3)=NN2C(N)=S)cc1 (centres unmarked) [Compound 26, 5-(4-(decyloxy)phenyl)-4,5-dihydro-3-phenylpyrazole-1-carbothioamide] |  |  | > 50 µM | 96.2 to 98.9 °C | 
Cc1ccc(-c2cc(-c3ccc(F)cc3)[nH]n2)cc1 [Compound 32, 5-(4-fluorophenyl)-3-(4-methylphenyl)-1H-pyrazole] |  |  | > 50 µM |  | 
CCCCCCOc1ccc(C2CC(c3ccccc3)=NN2C(N)=S)cc1 (centres unmarked) [Compound 23, 4,5-dihydro-5-(4-(hexyloxy)phenyl)-3-phenylpyrazole-1-carbothioamide] | > 200 µM | > 200 µM | 28.2 µM |  | Human cells SI (selectivity index) [2]: > 7.1; Monkey cells SI (selectivity index) [3]: > 7.1; Time until all parasites were dead [5]: 72 h; Antiparasitic activity in initial screen [5]: showed antiparasitic activity; Reduction in the number of eggs [6]: 30–70%
CCCCOc1ccc(C2CC(c3ccccc3)=NN2C(N)=O)cc1 (centres unmarked) [Compound 15, 5-(4-butoxyphenyl)-4,5-dihydro-3-phenylpyrazole-1-carboxamide] |  |  | > 50 µM |  | 
CCCCCCCCCCOc1ccc(C2CC(c3ccc(F)cc3)=NN2C(N)=S)cc1 (centres unmarked) [Compound 30, 3-(4-fluorophenyl)-4,5-dihydro-5-(4-(decyloxy)phenyl)pyrazole-1-carbothioamide] |  |  | > 50 µM | 105.5 to 108.4 °C | 
CCCCCCCCCOc1ccc(C2CC(c3ccccc3)=NN2C(N)=O)cc1 (centres unmarked) [Compound 16, 4,5-dihydro-5-(4-(nonyloxy)phenyl)-3-phenylpyrazole-1-carboxamide] | > 200 µM | 155 µM | < 20 µM |  | Human cells SI (selectivity index) [2]: > 14.5; Monkey cells SI (selectivity index) [3]: 11.2; Death of all worms within 24 h [5]: death of all worms; Time until all parasites were dead [5]: ≤ 24 h; Antiparasitic activity in initial screen [5]: showed antiparasitic activity; EC50 [5]: 13.8 µM; Reduction in the number of eggs [6]: 30–70%
CN(C)c1ccc(C2CC(c3ccc(F)cc3)=NN2C(N)=O)cc1 (centres unmarked) [Compound 21, 5-(4-(dimethylamino)phenyl)-3-(4-fluorophenyl)-4,5-dihydropyrazole-1-carboxamide] | > 200 µM | > 200 µM | < 20 µM |  | Human cells SI (selectivity index) [2]: > 10.1; Monkey cells SI (selectivity index) [3]: > 10.1; Time until all parasites were dead [5]: 48 h; Antiparasitic activity in initial screen [5]: showed antiparasitic activity; EC50 [5]: 19.8 µM
O=C(C1CCCCC1)N1CC(=O)N2CCc3ccccc3C2C1 (centres unmarked) [PZQ, praziquantel, reference compound] | > 200 µM | > 200 µM | 0.93 µM |  | 
Fc1ccc(-c2cc(-c3ccc(Cl)cc3)n[nH]2)cc1 [Compound 34, 3-(4-chlorophenyl)-5-(4-fluorophenyl)-1H-pyrazole] |  |  | > 50 µM |  | 
CCCCCCCCCOc1ccc(C2CC(c3ccc(F)cc3)=NN2C(N)=S)cc1 (centres unmarked) [Compound 29, 3-(4-fluorophenyl)-4,5-dihydro-5-(4-(nonyloxy)phenyl)pyrazole-1-carbothioamide] |  |  | > 50 µM | 113 to 114 °C | 
CCCCCCCCCCCCCCOc1ccc(C2CC(c3ccccc3)=NN2C(N)=S)cc1 (centres unmarked) [Compound 28, 4,5-dihydro-3-phenyl-5-(4-(tetradecyloxy)phenyl)pyrazole-1-carbothioamide] |  |  | > 50 µM | 97 to 99.2 °C | 
CCCCCCCCCCCCOc1ccc(C2CC(c3ccccc3)=NN2C(N)=O)cc1 (centres unmarked) [Compound 17, 5-(4-(dodecyloxy)phenyl)-4,5-dihydro-3-phenylpyrazole-1-carboxamide] |  |  | > 50 µM | 94.8 to 97.9 °C | 
CCCCCCCCCCCCOc1ccc(C2CC(c3ccccc3)=NN2C(N)=S)cc1 (centres unmarked) [Compound 27, 5-(4-(dodecyloxy)phenyl)-4,5-dihydro-3-phenylpyrazole-1-carbothioamide] |  |  | > 50 µM | 94.2 °C | 
NC(=O)N1N=C(c2ccc(F)cc2)CC1c1ccc(Cl)cc1 (centres unmarked) [Compound 22, 5-(4-chlorophenyl)-3-(4-fluorophenyl)-4,5-dihydropyrazole-1-carboxamide] | > 200 µM | 134 µM | < 10 µM |  | Human cells SI (selectivity index) [2]: > 32.2; Monkey cells SI (selectivity index) [3]: 21.6; Death of all worms within 24 h [5]: death of all worms; Time until all parasites were dead [5]: ≤ 24 h; Antiparasitic activity in initial screen [5]: showed antiparasitic activity; EC50 [5]: 6.2 µM
NC(=O)N1N=C(c2ccc(F)cc2)CC1c1ccc(Br)cc1 (centres unmarked) [Compound 20, 5-(4-bromophenyl)-3-(4-fluorophenyl)-4,5-dihydropyrazole-1-carboxamide] |  |  | > 50 µM | 176 to 178 °C | 
